≈ marks a conversion by molar mass, not a printed value. Where “and” joins values, the source holds several entries; their conditions need not be identical. Equal entries are not always repeated. Where two headings read alike, the source gives them in different places. Peptide text beside a SMILES is read from it.
Experiments:
[1] = system: MDR clinical isolates of E. coli (Ec1, Ec2, EC001, EC002, EC003); type: cell-based, Escherichia coli; conditions: MHB2
Experimental: (§1) The minimum inhibitory concentration (MIC) of synthetic peptides was determined using the broth microdilution method in cation-adjusted Mueller-Hinton broth (MHB2 – Sigma-Aldrich, St. Louis, MO, United States), according to the recommendations of the Clinical and Laboratory Standards Institute ([CLSI, 2012]), against four reference strains, namely, P. aeruginosa ATCC 27853, E. coli ATCC 25922, S. aureus ATCC 25923 and Enterococcus faecalis ATCC 29212. MIC values of peptide 3.1-PP4 were also determined against MDR clinical isolates of P. aeruginosa (PA002, PA004, Pa3, Pa4), E. coli (Ec1, Ec2, EC001, EC002, EC003) and K. pneumoniae (KP004, KP007, KP010). The peptides were tested in the concentration range of 1–1024 μg/mL. The minimum bactericidal concentration (MBC) was determined as previously reported ([Bessa et al., 2018]).
In view of the above results, peptide conjugate 3.1-PP4 was selected for further investigation of its activity against MDR isolates of three Gram-negative bacterial species, namely, P. aeruginosa (four isolates), E. coli (five isolates), and K. pneumoniae (four isolates), whose antimicrobial resistance patterns are provided in the Supplementary Table S1. MDR isolates of K. pneumoniae were included in this analysis given (i) the high prevalence of K. pneumoniae in HAI ([Zheng et al., 2017]), (ii) that K. pneumoniae isolates used are carbanepem-resistant strains of an Enterobacteriaceae species, meaning that they are class 1 priority pathogens for the research and development of new antibiotics according to the WHO ([WHO, 2017]), and (iii) K. pneumoniae bacteria are usually better biofilm producers than the other Enterobacteriaceae species used, E. coli ([Reisner et al., 2006]). MIC values obtained are shown in Table 3, and confirm peptide’s 3.1-PP4 potent action against Gram-negative bacteria, including MDR isolates, with a selectivity index (SI), i.e., ratio of IC50 values for mammalian vs. bacterial cells, ranging from ca. 9–69. In fact, for P. aeruginosa and E. coli, MIC against MDR isolates were in the same range, or below, of those previously found for ATCC reference strains (Table 2). For K. pneumoniae, MIC values ranged between 1 and 4 μM, which is remarkable.

[2] = system: preformed biofilms of MDR K. pneumoniae isolates; assay: Biofilm metabolic activity (MTT); type: cell-based, Klebsiella pneumoniae; conditions: 20 × MIC, 24 h at 37°C, absorbance 570 nm
Experimental: The respective control biofilms were equally formed but in absence of the peptide (only TSB medium was used). Afterward, the bacterial metabolic activity of biofilms was quantified after adding 3-(4,5-dimethylthiazole-2-yl)-2,5-diphenyl tetrazolium bromide (MTT, 0.5 mg/mL – Sigma-Aldrich, St. Louis, MO, United States) for 3 h at 37°C in the dark. DMSO was used to dissolve the formazan crystals formed and the absorbance at 570 nm was measured. Two independent experiments were performed in four replicates.
The influence of the peptide on the metabolic activity of preformed biofilms of one P. aeruginosa (PA004) and three K. pneumoniae (KP004, KP007, and KP010) isolates was also assessed, through a standard MTT assay.

HFF-1 cells = assay: Collagen production, Picrosirius Red staining; type: cell-based, human; conditions: HFF-1, 72 h incubation, Sirius Red, absorbance 540 nm; concentrations representative of the MIC values; compared with C16-PP4
Experimental: Collagen production was assessed as described by [Remoué et al. (2013)]. Briefly, HFF-1 cells were seeded and incubated as described previously for the cytotoxicity assay. After the 72 h incubation with peptides, cells were washed with PBS and the Sirius Red dye in picric acid solution (Sigma-Aldrich, St. Louis, MO, United States) was applied to each well. Cells were incubated at 25°C for 1 h under orbital shaking. Dye was then rejected, and cells were washed twice with absolute ethanol (AGA). Once the wells were dry, 1 M aqueous NaOH (Sigma-Aldrich, St. Louis, MO, United States) was added, and absorbance read at 540 nm (Biotek PowerWave XS).
The CBP-AMP conjugates herein addressed include a collagenesis-inducing motif, the amino acid sequence KTTKS whose N-palmitoylated derivative is the well-known “Palmitoyl pentapeptide-4” (C16-PP4) that emerged in 2000 under the commercial name Matrixyl as an active ingredient in skin rejuvenating cosmetics. […] To this end, collagen produced by HFF-1 human fibroblasts was determined by the previously validated Picrosirius Red Staining Protocol ([Remoué et al., 2013]), taking C16-PP4 as reference CBP. […] Results are presented in Figure 3, and expressed as the ratio between collagen produced and the number of viable cells, as the test peptides had different cytotoxicity against the HFF-1 cell line. […]

[3] = system: multidrug-resistant isolates of Klebsiella pneumoniae, E. coli, and P. aeruginosa; type: cell-based
Experimental: as §1
In view of the above results, peptide conjugate 3.1-PP4 was selected for further investigation of its activity against MDR isolates of three Gram-negative bacterial species, namely, P. aeruginosa (four isolates), E. coli (five isolates), and K. pneumoniae (four isolates), whose antimicrobial resistance patterns are provided in the Supplementary Table S1. […]

E. faecalis ATCC 29212 = assay: MIC, broth microdilution (CLSI), ATCC reference strain; type: cell-based, Enterococcus faecalis
Experimental: as §1, with “2018]). According to CLSI guidelines for antimicrobial susceptibility testing, MIC values were determined for all peptides against ATCC reference strains of two Gram-positive (S. aureus ATCC 25923 and E. faecalis ATCC 29212), and two Gram-negative (P. aeruginosa ATCC 27853 and E. coli ATCC 25922) bacterial species, and are shown in Table 2.” for “2018]).”

MIC ([1]; MDR E. coli isolate EC001): 2 μg/mL and 1 μM
MIC ([1]; MDR E. coli isolate EC002): 2 μg/mL and 1 μM
MIC ([1]; MDR E. coli isolate EC003): 1 µg/mL (≈ 0.515 µM)
MIC ([1]; MDR E. coli isolate Ec1): 4 µg/mL (≈ 2.06 µM)
MIC ([1]; MDR E. coli isolate Ec2): 2 μg/mL and 1 μM
MIC values against multidrug-resistant isolates [3]: 0.5 to 4.1 µM
MIC (E. faecalis ATCC 29212; ATCC 29212): 33 µM
MIC (E. faecalis ATCC 29212; E. faecalis ATCC 29212, broth microdilution in MHB2, CLSI, range tested 1–1024 μg/mL): 64 µg/mL
Structure (SMILES): CC(C)C[C@H](NC(=O)[C@H](Cc1c[nH]c2ccccc12)NC(=O)[C@H](CCCCN)NC(=O)[C@H](CC(C)C)NC(=O)[C@H](CC(C)C)NC(=O)[C@H](CCCCN)NC(=O)[C@@H](N)CCCCN)C(=O)N[C@@H](CC(C)C)C(=O)N[C@@H](CCCCN)C(=O)N[C@@H](CC(C)C)C(=O)N[C@@H](CC(C)C)C(=O)N[C@@H](CCCCN)C(=O)N[C@H](C(=O)N[C@H](C(=O)N[C@@H](CCCCN)C(=O)N[C@@H](CO)C(N)=O)[C@@H](C)O)[C@@H](C)O [Peptide 3.1-PP4] (H-KKLLKWLLKLLKTTKS-NH2; N-terminus assumed)
% reduction of metabolic activity in peptide-treated biofilms ([2]; isolate KP004, 24 h preformed biofilm): 79%
% reduction of metabolic activity in peptide-treated biofilms ([2]; isolate KP007, 24 h preformed biofilm): 40%
% reduction of metabolic activity in peptide-treated biofilms ([2]; isolate KP010, 24 h preformed biofilm): 77%
collagenesis-inducing behavior (collagen produced / number of viable cells) (HFF-1 cells): not statistically different from that of Matrixyl (C16-PP4)

Source: PMC6710338, “Turning a Collagenesis-Inducing Peptide Into a Potent Antibacterial and Antibiofilm Agent Against Multidrug-Resistant Gram-Negative Bacteria” (Frontiers in Microbiology, 2019)
